According to patent US8258188B2 (priority 2004, dated 2012):
“And” between values parts separate entries of the source, which are not always exact repeats. Equal entries are not always repeated. Where two headings read alike, the source gives them in different places. Marks after values point to notes of the source that are not given here.

Tests used:
[1] = test system: splenocytes stimulated with VR-1469 influenza virus antigens
[2] = 105-day dietary supplementation, 0.6 g punicic acid/100 g food
[3] = test system: spleen; settings: 0.6 g punicic acid/100 g food; least square mean ± SEM
Procedure: (§1) A total of twenty-two C57BL6 mice were used in Experiment 2. All mice were born on Nov. 23, 2003, weaned on Dec. 16, 2003 and fed the experimental diets from Dec. 19, 2003 to Jan. 15, 2004. […] Mice were weighed on a weekly basis. Mice were euthanized. Blood was collected from each mouse for generating serum, which was stored at −20° C. Thymus, spleen and colonic lymph nodes were harvested, weighed and collected in cRPMI in sterile conditions. Colon and liver specimens were collected in RNA later (Ambion Inc., Austin, Tex.) and frozen at −80° C. for gene expression analysis. Brain, kidney, liver, colon and ileum were also collected in a 10% buffered neutral formalin solution and processed as described in experiment 1 for histological evaluation. The remaining portion of the carcass was stored in 50-mL, conical tubes and frozen at −20° C. for body composition and fatty acid analysis. All specimens were generally labeled with the following information: 1) mouse number; 2) date collected; 3) experiment number; 4) type of solvent; and 5) tissue type. Tissue slides were examined in an Olympus microscope (Olympus America Inc., Dulles, Va.). Images were captured using the FlashBus FBG software (Integral Technologies, Indianapolis, Ind.) and processed in Adobe Photoshop Elements 2.0 (Adobe Systems Inc., San Jose, Calif.).
(§2) Spleens, thymuses and colonic lymph nodes were collected in complete RPMI on ice. Single-cell suspensions were obtained from each tissue by gently disrupting the tissue between two frosted ends of two glass slides on a petri dish containing 3 mL of cRPMI. The single-cell suspension was transferred from the petri dish to a 15-mL polypropylene tube (Fisher, Atlanta, Ga.) and washed by centrifuging in an Eppendorf 5810 R centrifuge (Westbury, N.Y.) at 200×g for 5 minutes at 4° C. The supernatant was discarded by decantation of the tube. The cell pellet was broken by gently tapping the tube against a solid surface. The total numbers of spleenocytes, thymocytes and colonic lymph node lymphocytes in each mouse were enumerated in a Z1 Coulter Single Particle Counter (Miami, Fla.). Briefly, 10-mL of isoton II diluent solution (Beckman Coulter, Miami, Fla.) were added into a counting vial, followed by 40 μL of the cell suspension, 4 drops of Zapaglobin (Beckman Coulter, Miami Fla.), and 10 additional mL of the isoton solution. The volume in which the cells were resuspended was assessed using a 5-mL, sterile pipette. The concentration of cells/mL and the total volume in each tube were used to determine the total amount of cells in each tissue and mouse.
(§3) A description of the uses of flow cytometry was provided in Experiment 1. Splenocyte suspensions were freed of erythrocytes by osmotic lysis (adding 4.5 mL of sterile deionized water for 1 to 2 seconds and then adding 0.5 mL of 10× PBS to make 1× PBS solution). Cells were washed again by centrifuging in an Eppendorf 5810 R centrifuge (Westbury, N.Y.) at 200×g for 5 minutes at 4° C. The supernatant was discarded by decantation of the tube. The cell pellet was broken by gently tapping the tube against a solid surface. FACS buffer (1 mL) was added in each tube. Splenocytes, thymocytes and colonic lymph node-derived mononuclear cells were enumerated in a Z1 Coulter Single Particle Counter (Miami, Fla.), adjusted to 2×10^6 cells/mL. Splenocytes, thymocytes, and colonic lymph nodes were analyzed for expression of CD4, CD8, CD3, TCRalphabeta, TCRgammadelta and CD19 molecules by flow cytometry as previously described (Bassaganya-Riera et al. 2001; Bassaganya-Riera et al. 2002; Bassaganya-Riera et al. 2003). Briefly, a volume of 100 μl of the splenocyte, thymocyte, and colonic lymph node lymphocyte suspension was added in to a round-bottomed microtiter plate (Becton Dickinson, Lincoln Park, N.J.) and stained with 50 μl of the primary antibody solutions in FACS buffer.

[4] = test system: thymus; settings: 0.6 g punicic acid/100 g food; least square mean ± SEM
Procedure: as §1, §2, §3

[5] = test system: colonic lymph nodes; settings: 0.6 g punicic acid/100 g food, least square mean ± SEM
Procedure: as §1, §2, §3

[6] = test system: C57BL6 mice fed regular or high fat diets; settings: day 78, least squares mean
From the text: (§4) In Western countries, Metabolic Syndrome or Syndrome X (i.e., diabetes, obesity, cardiovascular disease, hypertension and hyperlipidemia) is on a steady rise. […] A total of fifty C57BL6 mice were used in experiment 4. […] These diets are defined as regular diets and were formulated to be isocaloric between treatment groups. […] The high fat diets were also formulated to be isocaloric between treatment groups. The remaining mice within each group (n=5) were fed the regular diets. On day 78 of the experiment, mice were killed, blood was collected and immediately analyzed for fasting glucose concentrations by using the Accu-Check Instant Plus System (Roche Diagnostics Corporation, Indianapolis, Ind.) or stored for subsequent analysis of insulin concentrations in plasma. Abdominal white adipose tissue and interscapular brown adipose tissue were collected, weighed and stored at −80° C. for RNA analyses. Liver, lungs, kidneys, pancreas and heart were examined for macroscopic abnormalities (gross lesions), fixed in phosphate-buffered formalin (10%) and processed as described in experiment 1 for histological evaluation. All specimens were generally labeled with the following information: 1) mouse number; 2) date collected; 3) experiment number; 4) type of solvent; and 5) tissue type.
Serum insulin concentrations were determined by using commercially available enzyme-linked immunosorbent assay kits (Linco Research, St. Charles, Mo.).
Data were analyzed by analysis of variance (ANOVA). The ANOVA was performed by using the general linear model procedure of SAS (SAS Institute Inc., Cary, N.C.) as previously described (Bassaganya-Riera et al. 2004). Differences with probability value (P<0.05) were considered significant.

[7] = 0.6 g punicic acid/100 g food, 38 days, oral
From the text: All specimens were generally labeled with the following information: 1) mouse number; 2) date collected; 3) experiment number; 4) type of solvent; and 5) tissue type.

[8] = punicic acid-supplemented diets, 78 days
From the text: as §4

[9] = test system: lymph node-derived lymphocytes
Procedure: (§5) cRPMI medium was prepared as shown above. Wells of 96-well flat-bottomed microtiter plates (Becton Dickinson, Lincoln Park, N.J.) were seeded with 2×10^5 mononuclear cells in a total volume of 200 μl per well. Wells contained either concanavalin A (5 μg/ml, Con-A; Sigma), or medium alone (non-stimulated). Plates were incubated for 5 days at 37° C. in 5% CO2 humidified atmosphere. After 5 days, 0.5 μCi of methyl-[^3H] thymidine (specific radioactivity 6.7 Ci mmol^−1; Amersham Life Science, Arlington Heights, Ill.) in 10 μl of medium was added to each well and plates incubated for an additional 20 h. Well contents were harvested onto fiber filters with a PHD cell harvester (Skatron Instruments Inc., Sterling, Va.) and incorporated radioactivity measured by liquid scintillation counting (Beckman Instruments, Schaumburg, Ill.). Samples were run in triplicate and stimulation indices (SI) calculated by dividing counts min^−1 of stimulated wells by counts min^−1 from non-stimulated wells.
(§6) Statistical analysis was performed by analysis of variance (ANOVA). […] Differences with a probability value (P<0.05) were considered statistically significant.

[10] = test system: splenocytes
Procedure: as §5, §6

[11] = test system: C57BL6 mice challenged with 2.5% DSS; assay: DSS colitis model of experimental IBD (Experiment 1); format: in vivo
[12] = test system: C57BL6 mice fed regular or high fat diets; settings: day 78, intraperitoneal D-glucose after 14 hours fast
From the text: as §4
A glucose tolerance test was conducted on day 78 of the experiment. Animals were fasted overnight (14 hours).

[13] = concanavalin A 5 μg/ml, cells from mice fed 0.6 g punicic acid/100 g food
[14] = counts of Con A-stimulated wells divided by counts of non-stimulated wells
[15] = non-stimulated, cells from mice fed 0.6 g punicic acid/100 g food
[16] = 7-day challenge with 2.5% DSS, grade 0 to 4, least square mean ± SEM

Structure (SMILES): CCCC\C=C/C=C/C=C\CCCCCCCC(=O)O [punicic acid]
- Relative Proliferation Index B cells [1]: 1.15 ± 0.63 and 1.16 ± 0.27
- Relative Proliferation Index CD4^+ T cells [1]: 0.68 ± 0.48 and 1.10 ± 0.63
- H&E histology of brain, kidneys, liver, heart and lungs [2]: no microscopic lesions
- adverse effects or clinical signs throughout the study [2]: No negative adverse effects
- spleen: CD3^+ T cells [3]: 30.05 ± 1.78
- spleen: CD4^+ T cells [3]: 17.04 ± 1.10
- spleen: CD8^+ T cells [3]: 12.72 ± 0.73
- spleen: CD19^+ T cells [3]: 102.22 ± 5.42
- spleen: TCR αβ^+T cells [3]: 33.12 ± 1.93
- spleen: Total # of lymphocytes [3]: 144.21 ± 7.13 ×10^6/mL
- spleen: Weight [3]: 884.54 ± 3.30 mg
- thymus: CD4^+ thymocytes [4]: 2.51 ± 0.28
- thymus: CD4^+CD8^+ thymocytes [4]: 63.25 ± 8.73
- thymus: CD8^+ thymocytes [4]: 1.34 ± 0.18
- thymus: Lymphocytes [4]: 69.18 ± 9.56 ×10^6/mL
- thymus: TCR αβ^+ thymocytes [4]: 9.12 ± 1.21
- thymus: Weight [4]: 845.00 ± 4.68 mg
- colonic lymph nodes: CD3^+ T cells [5]: 10.24 ± 0.85
- colonic lymph nodes: CD4^+ T cells [5]: 6.65 ± 0.58
- colonic lymph nodes: CD8^+ T cells [5]: 4.53 ± 0.41
- colonic lymph nodes: CD19^+ T cells [5]: 5.98 ± 0.72
- colonic lymph nodes: Lymphocytes [5]: 18.64 ± 1.53 ×10^6/mL
- colonic lymph nodes: TCR αβ^+T cells [5]: 11.78 ± 1.08
- colonic lymph nodes: Weight [5]: 261.66 mg
- colonic lymph nodes: Weight ([5]; listed as Punicic Acid): 261.66 ± 3.28 mg
- Brown adipose tissue (interscapular) weight ([6]; High Fat Diets): 0.124 g
- White adipose tissue (abdominal) weight ([6]; High Fat Diets): 0.830^b g
- plasma fasting Glucose ([6]; High Fat Diets): 219.5^b mg/dL
- plasma fasting Insulin ([6]; High Fat Diets): 1.229^b ng/mL
- Brown adipose tissue (interscapular) weight ([6]; Regular Diets): 0.138 g
- White adipose tissue (abdominal) weight ([6]; Regular Diets): 0.801^b g
- plasma fasting Glucose ([6]; Regular Diets): 121.40^b mg/dL
- plasma fasting Insulin ([6]; Regular Diets): 0.669^b ng/mL
- adverse effects throughout the duration of the study [7]: No adverse effects were observed
- macroscopic and histologic analysis of liver, kidneys and brain [7]: no abnormalities
- fatty liver or enlarged viscera [8]: not observed
- Counts/minute lymph nodes (cRPMI & ConA) [9, 13]: 929.06 ± 161.10 Counts/minute
- Stimulation index lymph nodes [9, 14]: 22.40 ± 3.61
- Counts/minute lymph nodes (cRPMI) [9, 15]: 43.12 ± 3.76 Counts/minute
- Counts/minute spleen (cRPMI & ConA) [10, 13]: 1905.27 ± 254.42 Counts/minute
- Stimulation index spleen [10, 14]: 25.20 ± 3.16
- Counts/minute spleen (cRPMI) [10, 15]: 73.17 ± 10.96 Counts/minute
- start of rectal bleeding, on average ([11]; 0.6 g punicic acid/100 g food, 2.5% DSS challenge): 7 day of the DSS challenge
- mortality rate associated with colonic inflammation ([11]; 0.6 g punicic acid/100 g food, by day 6 of the 2.5% DSS challenge): 0%
- Histological score: Crypt Damage [11, 16]: 0.33 ± 0.26
- Histological score: Epithelial Erosion [11, 16]: 0.00 ± 0.00
- Histological score: Inflammatory Cell Infiltration [11, 16]: 0.50 ± 0.17
- Histological score: Metaplasia/Hyperplasia [11, 16]: 0.50 ± 0.28
- Histological score: Mucosal Thickness [11, 16]: 1.83 ± 0.24
- Histological score: Vascular Changes [11, 16]: 0.50 ± 0.35
- colitis-associated disease ([11]; diet fed 32 days prior to 7-day DSS challenge (2.5%, wt/vol)): improved
- average colon weights ([11]; following the DSS challenge): 0.153 grams
- average macroscopic score in colons (scale from 0 to 3) ([11]; following the DSS challenge): 1.4
- histopathological examination of H&E-stained slides of colon ([11]; following the DSS challenge): no major lesions
- glucose tolerance versus control diet ([12]; high fat diets): normalizes impaired glucose tolerance
- glucose tolerance versus control diet ([12]; regular diets): not different
